In patent US20170291890A1 (Epizyme, Inc., priority 2014, published 2017):
Where two headings read alike, the source gives them in different places.

Tests used:
[1] = target: T1, KDM5A (Homo sapiens, UniProt P29375); assay: KDM5A Assay (SAMDI mass spectrometry demethylase assay); type: biochemical; details: C-terminal FLAG-tagged KDM5A 1-1090, read-out: 5A IC50
T1 construct: C-terminal FLAG-tagged KDM5A^1-1090 was purchased from BPS Biosciences; FLAG (C); purchased BPS Biosciences
T1 sequence (P29375 1-1090): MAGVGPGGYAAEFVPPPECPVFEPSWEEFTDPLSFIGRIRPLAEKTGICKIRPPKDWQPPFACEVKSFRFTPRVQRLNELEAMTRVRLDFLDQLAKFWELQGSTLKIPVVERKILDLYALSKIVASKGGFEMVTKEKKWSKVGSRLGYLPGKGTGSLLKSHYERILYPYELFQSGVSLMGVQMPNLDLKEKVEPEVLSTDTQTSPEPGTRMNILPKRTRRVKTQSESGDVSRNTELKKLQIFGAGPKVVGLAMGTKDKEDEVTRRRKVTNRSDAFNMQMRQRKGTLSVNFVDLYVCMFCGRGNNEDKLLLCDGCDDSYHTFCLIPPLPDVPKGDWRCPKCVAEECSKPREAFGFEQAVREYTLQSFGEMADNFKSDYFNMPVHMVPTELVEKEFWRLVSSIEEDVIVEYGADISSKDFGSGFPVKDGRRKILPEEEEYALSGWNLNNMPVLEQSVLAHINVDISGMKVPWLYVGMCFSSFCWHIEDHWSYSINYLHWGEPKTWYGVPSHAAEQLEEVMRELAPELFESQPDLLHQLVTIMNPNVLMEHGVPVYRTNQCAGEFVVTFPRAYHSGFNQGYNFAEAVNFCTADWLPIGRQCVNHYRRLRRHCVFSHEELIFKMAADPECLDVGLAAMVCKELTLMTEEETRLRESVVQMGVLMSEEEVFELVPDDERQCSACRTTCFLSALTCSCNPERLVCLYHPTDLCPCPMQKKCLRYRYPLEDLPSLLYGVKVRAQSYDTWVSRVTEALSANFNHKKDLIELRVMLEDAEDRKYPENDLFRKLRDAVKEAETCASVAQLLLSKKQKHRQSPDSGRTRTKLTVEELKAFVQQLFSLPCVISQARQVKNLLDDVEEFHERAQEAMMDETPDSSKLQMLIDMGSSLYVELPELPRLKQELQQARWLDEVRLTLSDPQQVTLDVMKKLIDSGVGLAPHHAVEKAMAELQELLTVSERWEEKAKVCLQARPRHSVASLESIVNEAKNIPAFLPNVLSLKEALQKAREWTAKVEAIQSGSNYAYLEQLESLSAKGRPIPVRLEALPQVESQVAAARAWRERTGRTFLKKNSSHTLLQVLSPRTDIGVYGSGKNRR
Procedure: (§1) C-terminal FLAG-tagged KDM5A^1-1090 was purchased from BPS Biosciences. Peptides were synthesized by BioPeptide and all other reagents were purchased from Sigma-Aldrich at the highest level of purity possible. Assays were performed in a 50 μL volume in 384-well V-bottom polypropylene microplates (Greiner) at 25° C. Optimized 1× assay buffer was 50 mM HEPES (pH=8.0), 100 μM sodium ascorbate, 20 mM NaCl, 10 μM ammonium iron sulfate, 1 mM tris(2-carboxyethyl)phosphine (TCEP), 0.002% Tween-20, and 0.005% BSG. For compound screening, 35 μL of KDM5A^1-109° (final concentration, f.c.=20 nM) was added using a Multidrop Combi and preincubated with 1 μL of test compound (f.c.=10 μM) for 30 minutes and subsequently 15 μL of peptide with the following sequence NH2-ART[Kme-3]QTARKSTGGKA[K-Ahx-Biot]-amide (f.c.=250 nM) and 2-oxoglutarate (f.c.=15 μM) was added by Multidrop Combi to begin the reaction. Reactions proceeded for 150 minutes and were stopped by the addition of 5 μL of formic acid (f.c.=0.5%) using a Multidrop Combi and then analyzed by SAMDI Tech Inc.
(§2) SAMDI Tech analyzed all reactions using self-assembled monoloayer desorption/ionization technology as previously described (Gerard-Levin Z A, Scholle M D, Eisenberg A H, et al.: High-throughput screening of small molecule libraries using SAMDI mass spectrometry. ACS Comb Sci 2011; 13:347-350). Briefly, a 2 μL sample of the stopped demethylase reactions were transferred to a SAMDI array coated with 384 biotin-neutravidin spots using a 384-channel pipet station. The SAMDI arrays were incubated for 1 h in a humidified chamber, followed by washing of the surface with deionized ultra-filtered water (DIUF) and drying under nitrogen. A matrix of 30 mg/ml 2′,4′,6′-Trihydroxyacetophenone monohydrate (THAP) in acetone was applied using a TPP Mosquito 1.2 μL tip by dispensing 50 nL on each of the 384 spots on the array. SAMDI-MS was run using acquisition method ReflectorPositiveUTX. The % conversion of substrate to product was calculated using the AUC of the substrate and product peptide peaks.
(§3) An IC50 value was determined by contacting various concentrations of a test compound with one of the KDM4A, KDM4C or KDMSC enzyme constructs and plotting a dose-response curve which associates the amount of inhibition of the enzyme relative to the concentration of the test compound. From the curve, the IC50 value (which represents the concentration of the test compound necessary to inhibit maximal enzymatic activity by 50%) was determined. Additionally, the slope of the linear range of the plotted curve, which indicates the speed with which the curve rises between the minimum and maximum, was calculated.

[2] = target: T2, KDM4C (Homo sapiens, UniProt Q9H3R0); assay: KDM4C Assay (SAMDI mass spectrometry demethylase assay); type: biochemical; details: N-terminal GST-tagged KDM4C 2-372, read-out: 4C IC50
T2 construct: N-terminal GST-tagged KDM4C^2-372 was purchased from BPS Biosciences; GST (N); purchased BPS Biosciences
T2 sequence (Q9H3R0 2-372): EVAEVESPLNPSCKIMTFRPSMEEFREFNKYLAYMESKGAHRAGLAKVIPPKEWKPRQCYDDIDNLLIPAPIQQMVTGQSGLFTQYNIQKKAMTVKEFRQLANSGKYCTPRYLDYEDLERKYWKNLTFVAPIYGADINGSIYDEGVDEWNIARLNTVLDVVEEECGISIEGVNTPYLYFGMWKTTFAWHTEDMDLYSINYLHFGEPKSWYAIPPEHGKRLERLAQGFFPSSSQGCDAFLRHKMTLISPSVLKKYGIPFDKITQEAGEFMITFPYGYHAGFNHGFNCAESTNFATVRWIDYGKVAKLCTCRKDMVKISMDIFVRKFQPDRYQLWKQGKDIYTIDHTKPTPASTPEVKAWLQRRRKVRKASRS
Procedure: as §1, with “N-terminal GST-tagged KDM4C^2-372” for “C-terminal FLAG-tagged KDM5A^1-1090”, “KDM4C^2-372” for “KDM5A^1-109°”, “f.c.=5” for “f.c.=20”, “NH2-ARTKQTAR(Kme3)STGGKAPRKQLA(K-Ahx-Biotin)-amide (f.c.=500” for “NH2-ART[Kme-3]QTARKSTGGKA[K-Ahx-Biot]-amide (f.c.=250”
as §2, §3

Cc1c(Nc2cnccc2C(=O)O)cnn1CCN(C)C [Compound 108]
IC50 ([1]; class symbols): 1 to 10 µM | IC50 ([2]; class symbols): 1 to 10 µM

Cc1nn(C2CCN(c3ccccc3)CC2)cc1Nc1cnccc1C(=O)O [Compound 105, 3-(3-methyl-1-(1-phenylpiperidin-4-yl)-1H-pyrazol-4-ylamino) isonicotinic acid]
IC50 ([1]; class symbols): 0.001 to 0.1 µM | IC50 ([2]; class symbols): 0.1 to 1 µM

Cc1nn(C2CCCN(C3CCC3)CC2)cc1Nc1cnccc1C(=O)O (single isomer, unassigned) [Compound 118]
IC50 ([1]; class symbols): 0.1 to 1 µM | IC50 ([2]; class symbols): 1 to 10 µM

CN1CCC(n2ncc(Nc3cnccc3C(=O)O)c2-c2ccccc2)C1 (centres unmarked) [Compound 124]
IC50 ([1]; class symbols): 1 to 10 µM | IC50 ([2]; class symbols): 1 to 10 µM

Cc1c(Nc2cnccc2C(=O)O)cnn1C1CCCN(C2CCC2)CC1 (single isomer, unassigned) [Compound 119]
IC50 ([1]; class symbols): 1 to 10 µM | IC50 ([2]; class symbols): 0.1 to 1 µM

Cc1cn(Cc2ccccc2)nc1Nc1cnccc1C(=O)O [Compound 128, 3-(1-benzyl-4-methyl-1H-pyrazol-3-ylamino)isonicotinic acid]
IC50 ([1]; class symbols): 0.1 to 1 µM | IC50 ([2]; class symbols): 0.1 to 1 µM

Cc1cn(-c2cccc3c2CCNC3)nc1Nc1cnccc1C(=O)O [Compound 143, 3-(4-methyl-1-(1,2,3,4-tetrahydroisoquinolin-5-yl)-1H-pyrazol-3-ylamino)isonicotinic acid]
IC50 ([1]; class symbols): 0.001 to 0.1 µM | IC50 ([2]; class symbols): 0.1 to 1 µM

Cc1cn(C2CCCNC2)nc1Nc1cnccc1C(=O)O (centres unmarked) [Compound 141, 3-(4-methyl-1-(piperidin-3-yl)-1H-pyrazol-3-ylamino) isonicotinic acid]
IC50 ([1]; class symbols): 0.001 to 0.1 µM | IC50 ([2]; class symbols): 0.1 to 1 µM

Cc1nn([C@H]2CNC[C@H]2C)cc1Nc1cnccc1C(=O)O (single isomer, unassigned) [Compound 110]
IC50 ([1]; class symbols): 0.001 to 0.1 µM | IC50 ([2]; class symbols): 0.1 to 1 µM

O=C(O)c1ccncc1Nc1cnn(C2CCN(Cc3ccccc3)C2)c1-c1ccccc1 (centres unmarked) [Compound 125, 3-(1-(1-benzylpyrrolidin-3-yl)-5-phenyl-1H-pyrazol-4-ylamino) isonicotinic acid]
IC50 ([1]; class symbols): 0.1 to 1 µM | IC50 ([2]; class symbols): 0.1 to 1 µM

CCc1c(Nc2cnccc2C(=O)O)cnn1C1CCN(C)CC1 [Compound 123, 3-(5-ethyl-1-(1-methylpiperidin-4-yl)-1H-pyrazol-4-ylamino) isonicotinic acid]
IC50 ([1]; class symbols): 1 to 10 µM | IC50 ([2]; class symbols): 0.1 to 1 µM

O=C(O)c1ccncc1Nc1c(-c2ccccc2)cnn1[C@H]1CNc2ccccc2C1 [Compound 137, (R)-3-(4-phenyl-1-(1,2,3,4-tetrahydroquinolin-3-yl)-1H-pyrazol-5-ylamino)isonicotinic acid]
IC50 ([1]; class symbols): 10 to 100 µM | IC50 ([2]; class symbols): 10 to 100 µM

Cc1c(Nc2cnccc2C(=O)O)cnn1C1CCCN(C2CCC2)CC1 (single isomer, unassigned) [Compound 117]
IC50 ([1]; class symbols): 1 to 10 µM | IC50 ([2]; class symbols): 0.1 to 1 µM

CN1CCC(n2cc(-c3ccccc3)c(Nc3cnccc3C(=O)O)n2)CC1 [Compound 130, 3-(1-(1-methylpiperidin-4-yl)-4-phenyl-1H-pyrazol-3-ylamino) isonicotinic acid]
IC50 ([1]; class symbols): 0.001 to 0.1 µM | IC50 ([2]; class symbols): 0.1 to 1 µM

Cc1cnn(C2CCCN(CCN)C2)c1Nc1cnccc1C(=O)O (centres unmarked) [Compound 140, 3-(1-(1-(2-aminoethyl)piperidin-3-yl)-4-methyl-1H-pyrazol-5-yl-amino)isonicotinic acid]
IC50 ([1]; class symbols): 10 to 100 µM | IC50 ([2]; class symbols): 10 to 100 µM

Cc1nn([C@@H]2CNC[C@@H]2C)cc1Nc1cnccc1C(=O)O (single isomer, unassigned) [Compound 109]
IC50 ([1]; class symbols): 0.1 to 1 µM | IC50 ([2]; class symbols): 1 to 10 µM

CN1CCC(n2cc(Nc3cnccc3C(=O)O)c(-c3ccccc3)n2)CC1 [Compound 127, 3-(1-(1-methylpiperidin-4-yl)-3-phenyl-1H-pyrazol-4-ylamino)isonicotinic acid]
IC50 ([1]; class symbols): 0.1 to 1 µM | IC50 ([2]; class symbols): 0.1 to 1 µM

Cc1nn([C@H]2CCN(C)C2)cc1Nc1cnccc1C(=O)NCCO [Compound 121, (S)—N-(2-hydroxyethyl)-3-((3-methyl-1-(1-methylpyrrolidin-3-yl)-1H-pyrazol-4-yl)amino)isonicotinamide]
IC50 ([1]; numeric bound): > 100 µM | IC50 ([2]; numeric bound): > 100 µM

CN(C)CCc1cn(-c2ccccc2)nc1Nc1cnccc1C(=O)O [Compound 144, 3-(4-(2-(dimethylamino)ethyl)-1-phenyl-1H-pyrazol-3-ylamino) isonicotinic acid]
IC50 ([1]; class symbols): 1 to 10 µM | IC50 ([2]; class symbols): 1 to 10 µM

Cc1nn(C2CCCN(C3CCC3)CC2)cc1Nc1cnccc1C(=O)O (single isomer, unassigned) [Compound 120]
IC50 ([1]; class symbols): 0.1 to 1 µM | IC50 ([2]; class symbols): 0.1 to 1 µM

Cc1nn([C@@H]2CCN(C)C2)cc1Nc1cnccc1C(=O)NCCO [Compound 122, (R)—N-(2-hydroxy-ethyl)-3-((3-methyl-1-(1-methylpyrrolidin-3-yl)-1H-pyrazol-4-yl)amino)isonicotin-amide]
IC50 ([1]; class symbols): 10 to 100 µM | IC50 ([2]; numeric bound): > 100 µM

Cc1c(Nc2cnccc2C(=O)O)cnn1C1CCCNCC1 (single isomer, unassigned) [Compound 113]
IC50 ([1]; class symbols): 1 to 10 µM | IC50 ([2]; class symbols): 0.1 to 1 µM
